Experimental data reported in PubChem BioAssay AID248 (DTP/NCI, 2004).
“And” between values parts separate entries of the source, which are not always exact repeats. Identical values can stand only once. Toxic doses and inconclusive results are not listed.

Test system: L1210 leukemia ip in BDF1 mice, survival T/C
Assay: NCI In Vivo Anticancer Drug Screen. Data for tumor model L1210 Leukemia (intraperitoneal) in B6D2F1 (BDF1) mice
Details: endpoint: mean survival time, higher = longer survival
Summary of the method: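 In this screen, tumor-bearing mice given compound are compared to those given vehicle, and their survival values are reported as a treated-to-control quotient.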

[1] = dose: 25.0 mg/kg/injection, schedule: Q01DX009 (ip), vehicle: Klucel (hydroxypropylcellulose) (HPC)
[2] = dose: 25.0 mg/kg/injection, schedule: Q04DX003 (ip), vehicle: Klucel (hydroxypropylcellulose) (HPC)
[3] = dose: 50.0 mg/kg/injection, schedule: Q04DX003 (ip), vehicle: Klucel (hydroxypropylcellulose) (HPC)
[4] = dose: 100.0 mg/kg/injection, schedule: Q04DX003 (ip), vehicle: saline with Tween-80
[5] = dose: 200.0 mg/kg/injection, schedule: Q04DX003 (ip), vehicle: saline with Tween-80
[6] = dose: 400.0 mg/kg/injection, schedule: Q04DX003 (ip), vehicle: saline with Tween-80
[7] = dose: 100.0 mg/kg/injection, schedule: Q01DX001 (ip), vehicle: carboxymethylcellulose (CMC)
[8] = dose: 100.0 mg/kg/injection, schedule: Q01DX009 (ip), vehicle: saline
[9] = dose: 200.0 mg/kg/injection, schedule: Q01DX001 (ip), vehicle: carboxymethylcellulose (CMC)
[10] = dose: 400.0 mg/kg/injection, schedule: Q01DX001 (ip), vehicle: carboxymethylcellulose (CMC)
[11] = dose: 100.0 mg/kg/injection, schedule: Q01DX009 (ip), vehicle: saline with Tween-80
[12] = dose: 200.0 mg/kg/injection, schedule: Q01DX009 (ip), vehicle: saline with Tween-80
[13] = dose: 100.0 mg/kg/injection, schedule: Q04DX003 (ip), vehicle: saline
[14] = dose: 200.0 mg/kg/injection, schedule: Q04DX003 (ip), vehicle: saline
[15] = dose: 400.0 mg/kg/injection, schedule: Q04DX003 (ip), vehicle: saline
[16] = dose: 100.0 mg/kg/injection, schedule: Q04DX003 (ip), vehicle: Klucel (hydroxypropylcellulose) (HPC)

For Clc1c(Cl)c([O][Sn]([c]2ccccc2)([c]2ccccc2)[c]2ccccc2)c(Cl)c(Cl)c1[O][Sn]([c]1ccccc1)([c]1ccccc1)[c]1ccccc1, the T/C (dose: 3.12 mg/kg/injection, schedule: Q01DX009 (ip), vehicle: Klucel (hydroxypropylcellulose) (HPC)) was 108 % of control, the T/C (dose: 6.25 mg/kg/injection, schedule: Q01DX009 (ip), vehicle: Klucel (hydroxypropylcellulose) (HPC)) was 91 % of control and the T/C [1] was 90 % of control.

With O=C1C=C(Nc2cccc(Cl)c2)C(=O)N1c1cccc(Cl)c1 the T/C (dose: 75.0 mg/kg/injection, schedule: Q04DX003 (ip), vehicle: other) was 106 % of control, the T/C (dose: 150.0 mg/kg/injection, schedule: Q04DX003 (ip), vehicle: other) was 91 % of control and the T/C (dose: 300.0 mg/kg/injection, schedule: Q04DX003 (ip), vehicle: other) was 90 % of control.

In the case of Cc1c(C)c(CO)c(C)c(C)c1CO, the T/C (dose: 12.5 mg/kg/injection, schedule: Q04DX003 (ip), vehicle: Klucel (hydroxypropylcellulose) (HPC)) is reported as 94 % of control, the T/C [2] is reported as 92 % of control and the T/C [3] is reported as 97 % of control.

With O=[N+]([O-])c1cncc([N+](=O)[O-])c1NCc1ccccc1 the T/C [4] was 103 % of control, the T/C [5] was 93 % of control and the T/C [6] was 104 % of control.

In the case of CCOC(=O)c1ccnc2ccc(O)cc12, the T/C [4] is reported as 104 % of control, the T/C [5] is reported as 96 % of control and the T/C [6] is reported as 95 % of control.

For Oc1ccc(I)c2cccnc12, the T/C (dose: 22.5 mg/kg/injection, schedule: Q01DX009 (ip), vehicle: saline) was 165 % of control, the T/C (dose: 45.0 mg/kg/injection, schedule: Q01DX009 (ip), vehicle: saline) was 240 % of control and the T/C (dose: 90.0 mg/kg/injection, schedule: Q01DX009 (ip), vehicle: saline) was 297 % of control. For the same compound, the T/C [7] was 93 % of control, the T/C [8] was 169 % of control and the T/C (dose: 180.0 mg/kg/injection, schedule: Q01DX009 (ip), vehicle: saline) was 206 % of control. The T/C [9] was 90 % of control and the T/C [10] was 95 % of control.

With CNC(=O)Oc1cc2ccccc2cc1C(=O)Nc1cc(OC)ccc1OC the T/C [1] was 94 % of control, the T/C (dose: 50.0 mg/kg/injection, schedule: Q01DX009 (ip), vehicle: Klucel (hydroxypropylcellulose) (HPC)) was 101 % of control and the T/C (dose: 100.0 mg/kg/injection, schedule: Q01DX009 (ip), vehicle: Klucel (hydroxypropylcellulose) (HPC)) was 94 % of control. The T/C (dose: 200.0 mg/kg/injection, schedule: Q01DX009 (ip), vehicle: Klucel (hydroxypropylcellulose) (HPC)) was 95 % of control.

With CN(C)c1ncnc2c1c(Br)cn2C1OC(CO)C(O)C1O (stereo not drawn) the T/C (dose: 5.0 mg/kg/injection, schedule: Q01DX001 (ip), vehicle: saline) was 101 % of control, the T/C (dose: 10.0 mg/kg/injection, schedule: Q01DX001 (ip), vehicle: saline) was 102 % of control and the T/C (dose: 20.0 mg/kg/injection, schedule: Q01DX001 (ip), vehicle: saline) was 104 % of control. The T/C (dose: 40.0 mg/kg/injection, schedule: Q01DX001 (ip), vehicle: saline) was 108 % of control.

C=CCCCCCCCCC(=O)NC(C)COC (stereo not drawn) was tested, and the T/C (dose: 50.0 mg/kg/injection, schedule: Q01DX009 (ip), vehicle: saline with Tween-80) was 103 % of control, the T/C [11] was 103 % of control and the T/C [12] was 100 % of control.

O=C(C=C(C(F)(F)F)C(F)(F)F)c1cc(Cl)ccc1Cl was tested, and the T/C (dose: 12.5 mg/kg/injection, schedule: Q01DX009 (ip), vehicle: saline with Tween-80) was 110 % of control, the T/C (dose: 12.5 mg/kg/injection, schedule: Q04DX003 (ip), vehicle: saline with Tween-80) was 97 % of control and the T/C (dose: 25.0 mg/kg/injection, schedule: Q01DX009 (ip), vehicle: saline with Tween-80) was 102 % of control. The T/C (dose: 25.0 mg/kg/injection, schedule: Q04DX003 (ip), vehicle: saline with Tween-80) was 100 % of control and the T/C (dose: 50.0 mg/kg/injection, schedule: Q04DX003 (ip), vehicle: saline with Tween-80) was 105 % of control.

In the case of C/C(=N\N=C(/C)c1cccc([N+](=O)[O-])c1)c1cccc([N+](=O)[O-])c1, the T/C (dose: 100.0 mg/kg/injection, schedule: Q01DX001 (ip), vehicle: other) is reported as 100 % of control, the T/C (dose: 200.0 mg/kg/injection, schedule: Q01DX001 (ip), vehicle: other) is reported as 100 % of control and the T/C (dose: 400.0 mg/kg/injection, schedule: Q01DX001 (ip), vehicle: other) is reported as 97 % of control.

In the case of NC(N)=NCCCC(NC(=O)c1ccccc1)C(=O)Nc1ccc([N+](=O)[O-])cc1 (stereo not drawn), the T/C [11] is reported as 89 % of control, the T/C [13] is reported as 104 % of control and the T/C [12] is reported as 95 % of control. For the same compound, the T/C [14] was 100 % of control, the T/C (dose: 400.0 mg/kg/injection, schedule: Q01DX009 (ip), vehicle: saline with Tween-80) was 110 % of control and the T/C [15] was 98 % of control.

With NC(CNO)C(=O)O (stereo not drawn) the T/C [8] was 101 % of control, the T/C [13] was 103 % of control and the T/C (dose: 200.0 mg/kg/injection, schedule: Q01DX009 (ip), vehicle: saline) was 103 % of control. For the same compound, the T/C [14] was 97 % of control, the T/C (dose: 400.0 mg/kg/injection, schedule: Q01DX009 (ip), vehicle: saline) was 110 % of control and the T/C [15] was 111 % of control.

For O=C1NC(CCl)(CCl)CO1, the T/C (dose: 0.5 mg/kg/injection, schedule: Q01DX001 (ip), vehicle: saline) was 94 % of control, the T/C (dose: 1.0 mg/kg/injection, schedule: Q01DX001 (ip), vehicle: saline) was 94 % of control and the T/C (dose: 2.0 mg/kg/injection, schedule: Q01DX001 (ip), vehicle: saline) was 105 % of control.

In the case of Cc1ccc(NC(=O)Nc2onc(C)c2C)c([N+](=O)[O-])c1, the T/C [2] is reported as 93 % of control, the T/C [3] is reported as 93 % of control and the T/C [16] is reported as 93 % of control and 88 % of control.

With CCCS(=O)(=O)N1CCCCC1 the T/C (dose: 100.0 mg/kg/injection, schedule: Q04DX002 (ip), vehicle: Klucel (hydroxypropylcellulose) (HPC)) was 102 % of control, the T/C (dose: 200.0 mg/kg/injection, schedule: Q04DX002 (ip), vehicle: Klucel (hydroxypropylcellulose) (HPC)) was 94 % of control and the T/C (dose: 400.0 mg/kg/injection, schedule: Q04DX002 (ip), vehicle: Klucel (hydroxypropylcellulose) (HPC)) was 102 % of control.

O=C(O)CSCc1ccc([N+](=O)[O-])cc1 was tested, and the T/C [16] was 100 % of control, the T/C (dose: 200.0 mg/kg/injection, schedule: Q04DX003 (ip), vehicle: Klucel (hydroxypropylcellulose) (HPC)) was 100 % of control and the T/C (dose: 400.0 mg/kg/injection, schedule: Q04DX003 (ip), vehicle: Klucel (hydroxypropylcellulose) (HPC)) was 100 % of control.

CCOC(=O)c1cnc(SC)nc1Nc1ccccc1 was tested, and the T/C [4] was 94 % of control, the T/C [5] was 100 % of control and the T/C [6] was 86 % of control.

In the case of COS(C)(=O)=O, the T/C (dose: 12.5 mg/kg/injection, schedule: Q01DX010 (ip), vehicle: saline) is reported as 101 % of control and 91 % of control, the T/C (dose: 25.0 mg/kg/injection, schedule: Q01DX010 (ip), vehicle: saline) is reported as 102 % of control and 106 % of control and the T/C (dose: 25.0 mg/kg/injection, schedule: Q01DX Z (ip), vehicle: carboxymethylcellulose (CMC)) is reported as 97 % of control. The T/C (dose: 50.0 mg/kg/injection, schedule: Q01DX010 (ip), vehicle: saline) was 96 % of control and 106 % of control, the T/C (dose: 50.0 mg/kg/injection, schedule: Q01DX Z (ip), vehicle: carboxymethylcellulose (CMC)) was 106 % of control and the T/C (dose: 100.0 mg/kg/injection, schedule: Q01DX010 (ip), vehicle: saline) was 95 % of control and 102 % of control. The T/C (dose: 100.0 mg/kg/injection, schedule: Q01DX Z (ip), vehicle: carboxymethylcellulose (CMC)) was 95 % of control.

With CCNCc1ccc(OC)cc1 the T/C (dose: 25.0 mg/kg/injection, schedule: Q01DX009 (ip), vehicle: saline) was 101 % of control, the T/C (dose: 50.0 mg/kg/injection, schedule: Q01DX009 (ip), vehicle: saline) was 93 % of control and the T/C [8] was 100 % of control. The T/C [4] was 120 % of control.

For [N-]=[N+]=NC(=O)C1(Br)CCC2c3ccccc3C([N+](=O)[O-])(C1)c1ccccc12 (stereo not drawn), the T/C [13] was 101 % of control, the T/C [14] was 98 % of control and the T/C [15] was 93 % of control.

For C=CC(C)(C)c1c(OC(C)=O)cc2oc3c(OC(C)=O)c(OC(C)=O)cc(CC=C(C)C)c3c(=O)c2c1O, the T/C [7] was 95 % of control, the T/C [9] was 92 % of control and the T/C [10] was 111 % of control.

With Cc1cc([N+](=O)[O-])ccc1O the T/C (dose: 100.0 mg/kg/injection, schedule: Q01DX001 (ip), vehicle: saline) was 100 % of control and the T/C (dose: 200.0 mg/kg/injection, schedule: Q01DX001 (ip), vehicle: saline) was 100 % of control.
